Entries after “also recorded” stand apart in the source; their conditions may differ. Where two headings read alike, the source gives them in different places.
How the values were obtained:
[1] = test system: H^+/OC antiporter; experiment: Inhibition of [^3H]-pyrilamine uptake into hCMEC/D3 cells; type: cell-based, human; conditions: [^3H]-pyrilamine 1 µCi/mL, 48 nM, read-out: Apparent IC50 on [^3H]-pyrilamine uptake
Experimental: The immortalized human cerebral microvascular endothelial cell line (hCMEC/D3) was maintained in T75-flasks coated with collagen type I from calf skin (C9791, 18.7 μg/mL) and cultured in EBM®-2 medium (Lonza, Basel, Schweiz) supplemented with 5% (v/v) fetal bovine serum (FBS, 10270, Life Technologies, CA, USA or SH3008803, ThermoFisher Scientific, MA, USA), 100 U/mL penicillin and 100 μg/ml streptomycin, 1 ng/mL human basic fibroblast growth factor (bFGF), 1.4 μM hydrocortisone, 1% (v/v) chemically defined lipid concentrate (ThermoFisher Scientific, MA, USA), 10 mM N-2-hydroxyethylpiperazine-N-2-ethane sulfonic acid (HEPES) and 5 μg/mL ascorbic acid (5% CO2, 37 °C). […] For experiments, cells were seeded into 24-well plates (6.7·10^4 cells/cm^2) and cultured for four continuous days. The cells were used for experiments between passage 3–31.
(§1) The cells were equilibrated in hHBSS with or without inhibitor for 15 min (37 °C, 90 rpm). The compound of interest was spiked into the hHBSS followed by incubation for a designated time. The timeframe of the initial uptake rate was validated into hCMEC/D3 cells (Fig. 1 and Additional file 1). The experiment was terminated by washing three times with ice-cold HBSS supplemented with 0.0375% (v/v) sodium bicarbonate.
The inhibitory constant at 50% inhibition (IC50) was determined by fitting the uptake flux (Jss) as function of the logarithmic inhibitor concentration to Eq. 2.2 Jss=Jmin+(Jmax-Jmin)/1+10^logIC50-InH where [I] is the inhibitor concentration, nH is the Hill coefficient.
The hCMEC/D3 cells were used for [^3H]-pyrilamine inhibition studies between passage 3–6 (pyrilamine, oxycodone), 16–18 (almotriptan), 7–13 (eletriptan), 25–27 (frovatriptan), 3–8 (naratriptan), 16–18 (rizatriptan), 12–14 (sumatriptan), and 14–16 (zolmitriptan).
The cells were permeabilized using 0.1% (v/v) Triton X-100 in ultrapure water (ELGA, Buckinghamshire, England) for 10 min at room temperature. Thereafter, the cells were scraped off the bottom of the wells, transferred to scintillation vials, and mixed with 2 mL of Ultima Gold 241 TM (Perkin Elmer, MA, USA). The samples were analyzed using a Tri-Carb 2910 TR Liquid Scintillation Analyzer (Perkin Elmer, MA, USA).

[2] = test system: H^+/OC antiporter; experiment: Cellular uptake into hCMEC/D3 cells in absence or presence of pyrilamine or oxycodone; type: cell-based, human; conditions: triptan 50 µM, asterisks = P level; for Inhibition by oxycodone (of the compound's uptake): 500 µM oxycodone; for Inhibition by pyrilamine (of the compound's uptake): 500 µM pyrilamine
Experimental: as §1
The hCMEC/D3 cells were used for time-dependent uptake studies between passage 3–5 (pyrilamine), 7–9 (oxycodone), 6–8 (almotriptan), and 24–31 (eletriptan).
The hCMEC/D3 cells were used for uptake studies of almotriptan, eletriptan, and sumatriptan in the presence of pyrilamine and oxycodone between passage 21–23.
The cells were permeabilized using 50% (v/v) acetonitrile (HPLC LC–MS grade, VWR International S.A.S, Soeborg, Denmark) in ultrapure water (ELGA, Buckinghamshire, England) for 10 min at room temperature. Thereafter, the cells were scraped off the bottom of the wells and transferred to HPLC vials. Samples from bidirectional transport experiments were transferred directly into HPLC vials. All samples were stored at – 18 °C for later analysis. Calibration curves with standards in the range of 1 or 5–1000 ng/mL were dissolved in 50% (v/v) acetonitrile in ultrapure water (ELGA, Buckinghamshire, England), or in hHBSS(-) for analysis of bidirectional transport samples.
Liquid chromatography tandem mass spectrometry (LC–MS/MS) were performed using electrospray ionization in positive mode on a micromass Quattro micro™ API tandem quadrupole mass spectrometer (Waters, MA, USA) or an Ultivo triple quadrupole mass spectrometer (Agilent Technologies, CA, USA) coupled to Agilent HPLC system 1100 Series or 1260 Series (Agilent Technologies, CA, USA California), respectively. Applied columns were an InfinityLab Poroshell 120 EC-C18 (3.0 × 50 mm; 2.7 micron, Agilent Technologies, CA, USA) or a Kinetex 2.6 μm XB-C18 (100 Å, 100 × 4.6 mm, Phenomenex Inc., CA, USA). An overview of applied HPLC and MS/MS parameters can be found in Additional file 2 and Additional file 3, respectively. The data acquisition software was MassLynx (V4.1, Waters, MA, USA).

CN1CCC[C@@H]1Cc1c[nH]c2ccc(CCS(=O)(=O)c3ccccc3)cc12 [Eletriptan]
IC50 ([1]; listed as eletriptan): ~15 µM | IC50 [1]: 15 ± 4 µM | Inhibition by oxycodone (of the compound's uptake) [2]: yes (*) | Inhibition by oxycodone (of the compound's uptake) ([2]; listed as eletriptan): inhibited the uptake of eletriptan in a statistically significant manner | Inhibition by pyrilamine (of the compound's uptake) [2]: yes (****) | Inhibition by pyrilamine (of the compound's uptake) ([2]; listed as eletriptan): inhibited the uptake of eletriptan in a statistically significant manner; also recorded: almost be completely inhibited
